Patent US20220117938A1, “COMBINATON THERAPY WITH A DON PRODRUG AND AN IMMUNE CHECKPOINT INHIBITOR” (DRACEN PHARMACEUTICALS, INC., priority 2019, published 2022)

System: CT26.WT tumors
Assay: Anti-tumor efficacy of Compound 1 and Compound 1 in combination with anti-PD-1 in the CT26.WT syngeneic model (Example 10)
Assay type: in vivo, mice
Experimental: Female BALB/c mice were inoculated subcutaneously in the right flank with CT26.WT cells for tumor development. Six days after tumor inoculation, mice with tumor sizes ranging from 30-81 mm^3 (average tumor size 55 mm^3) were selected and assigned into 10 groups using stratified randomization with 8 mice per group based upon their tumor volumes. The treatments were started from the day of randomization (defined as D0), Group 1 was treated with Vehicle control, 10 mpk, SC, qd 5 days on (Mon-Fri)×4 cycles; Group 2 was treated with Anti-PD-1, 10 mpk, IP, q4d×6; Group 3 was treated with Compound 1, 1.4 mpk, SC, qd 5 days on (Mon-Fri)×4 cycles; Group 4 was treated with Compound 1+anti-PD-1, 1.4 mpk+10 mpk, SC, qd 5 days on (Mon-Fri)×4 cycles+IP, q4d×6; Group 5 was treated with Compound 1, 10.5 mpk, IV, biw (Mon, Thu)×4 cycles; Group 6 was treated with Compound 1+anti-PD-1, 10.5 mpk+10 mpk, IV, biw (Mon, Thu)×4 cycles+IP, q4d×6; Group 7 was treated with Compound 1, 7 mpk IV, tiw (Mon, Wed, Fri)×4 cycles; Group 8 was treated with Compound 1+anti-PD-1, 7 mpk+10 mpk, IV, tiw (Mon, Wed, Fri)×4 cycles+IP, q4d×6; Group 9 was treated with Compound 1, 7 mpk IV, tiw (Mon, Tue, Wed)×4 cycles; and Group 10 was treated with Compound 1+anti-PD-1, 7 mpk+10 mpk, IV, tiw (Mon, Tue, Wed)×4 cycles+IP, q4d×6. The tumor sizes were measured three times per week during the treatment. Survival was monitored with tumor volume exceeding 2000 mm^3 as endpoint. The entire study was terminated on D56 after start of the treatment. All treatments were well-tolerated without any adverse effects or significant body weight loss.

[1] = Group 3, 1.4 mpk SC qd Mon-Fri x4 cycles
[2] = Group 3, 1.4 mpk SC qd Mon-Fri x4 cycles, day 14
[3] = Group 5, 10.5 mpk IV biw x4 cycles
[4] = Group 5, 10.5 mpk IV biw x4 cycles, day 14
[5] = Group 7, 7 mpk IV tiw (Mon,Wed,Fri) x4 cycles
[6] = Group 7, 7 mpk IV tiw (Mon,Wed,Fri) x4 cycles, day 14
[7] = Group 9, 7 mpk IV tiw (Mon,Tue,Wed) x4 cycles
[8] = Group 9, 7 mpk IV tiw (Mon,Tue,Wed) x4 cycles, day 14

CC(=O)N[C@@H](Cc1c[nH]c2ccccc12)C(=O)N[C@@H](CCC(=O)C=[N+]=[N-])C(=O)OC(C)C [Compound 1, Isopropyl (S)-2-((S)-2-acetamido-3-(1H-indol-3-yl)propanamido)-6-diazo-5-oxohexanoate]
ILS [1]: 81.0%
MST [1]: 38 days
RTV at day 14 [1]: 3.07 ± 0.38
Tumor Size at day 14 [1]: 172 ± 29 mm^3
Tumor volume (Group 3, 1.4 mpk SC qd Mon-Fri x4 cycles, day 0): 56 ± 5 mm^3
Tumor volume (Group 3, 1.4 mpk SC qd Mon-Fri x4 cycles, day 2): 59 ± 5 mm^3
Tumor volume (Group 3, 1.4 mpk SC qd Mon-Fri x4 cycles, day 11): 103 ± 13 mm^3
T/C [2]: 17.06%
TGI [2]: 88.16%
Tumor volume [2]: 172 ± 29 mm^3
Tumor volume (Group 3, 1.4 mpk SC qd Mon-Fri x4 cycles, day 16): 163 ± 20 mm^3
Tumor volume (Group 3, 1.4 mpk SC qd Mon-Fri x4 cycles, day 18): 191 ± 26 mm^3
Tumor volume (Group 3, 1.4 mpk SC qd Mon-Fri x4 cycles, day 21): 258 ± 25 mm^3
Tumor volume (Group 3, 1.4 mpk SC qd Mon-Fri x4 cycles, day 23): 276 ± 36 mm^3
Tumor volume (Group 3, 1.4 mpk SC qd Mon-Fri x4 cycles, day 25): 278 ± 42 mm^3
Tumor volume (Group 3, 1.4 mpk SC qd Mon-Fri x4 cycles, day 28): 466 ± 62 mm^3
Tumor volume (Group 3, 1.4 mpk SC qd Mon-Fri x4 cycles, day 30): 682 ± 103 mm^3
Tumor volume (Group 3, 1.4 mpk SC qd Mon-Fri x4 cycles, day 32): 1012 ± 189 mm^3
Tumor volume (Group 3, 1.4 mpk SC qd Mon-Fri x4 cycles, day 35): 1417 ± 260 mm^3
ILS [3]: 76.2%
MST [3]: 37 days
RTV at day 14 [3]: 3.21 ± 1.03
Tumor Size at day 14 [3]: 170 ± 51 mm^3
Tumor volume (Group 5, 10.5 mpk IV biw x4 cycles, day 0): 56 ± 5 mm^3
Tumor volume (Group 5, 10.5 mpk IV biw x4 cycles, day 2): 52 ± 5 mm^3
Tumor volume (Group 5, 10.5 mpk IV biw x4 cycles, day 11): 113 ± 24 mm^3
T/C [4]: 17.83%
TGI [4]: 88.39%
Tumor volume [4]: 170 ± 51 mm^3
Tumor volume (Group 5, 10.5 mpk IV biw x4 cycles, day 16): 214 ± 60 mm^3
Tumor volume (Group 5, 10.5 mpk IV biw x4 cycles, day 18): 226 ± 59 mm^3
Tumor volume (Group 5, 10.5 mpk IV biw x4 cycles, day 21): 381 ± 119 mm^3
Tumor volume (Group 5, 10.5 mpk IV biw x4 cycles, day 23): 439 ± 128 mm^3
Tumor volume (Group 5, 10.5 mpk IV biw x4 cycles, day 25): 562 ± 197 mm^3
Tumor volume (Group 5, 10.5 mpk IV biw x4 cycles, day 28): 849 ± 264 mm^3
ILS [5]: 76.2%
MST [5]: 37 days
RTV at day 14 [5]: 3.34 ± 0.97
Tumor Size at day 14 [5]: 201 ± 67 mm^3
Tumor volume (Group 7, 7 mpk IV tiw (Mon,Wed,Fri) x4 cycles, day 0): 55 ± 5 mm^3
Tumor volume (Group 7, 7 mpk IV tiw (Mon,Wed,Fri) x4 cycles, day 2): 61 ± 9 mm^3
Tumor volume (Group 7, 7 mpk IV tiw (Mon,Wed,Fri) x4 cycles, day 11): 111 ± 33 mm^3
T/C [6]: 18.56%
TGI [6]: 85.12%
Tumor volume [6]: 201 ± 67 mm^3
Tumor volume (Group 7, 7 mpk IV tiw (Mon,Wed,Fri) x4 cycles, day 16): 238 ± 94 mm^3
Tumor volume (Group 7, 7 mpk IV tiw (Mon,Wed,Fri) x4 cycles, day 18): 256 ± 101 mm^3
Tumor volume (Group 7, 7 mpk IV tiw (Mon,Wed,Fri) x4 cycles, day 21): 471 ± 261 mm^3
ILS [7]: 92.9%
MST [7]: 40.5 days
RTV at day 14 [7]: 2.32 ± 0.84
Tumor Size at day 14 [7]: 132 ± 46 mm^3
Tumor volume (Group 9, 7 mpk IV tiw (Mon,Tue,Wed) x4 cycles, day 0): 56 ± 4 mm^3
Tumor volume (Group 9, 7 mpk IV tiw (Mon,Tue,Wed) x4 cycles, day 11): 79 ± 19 mm^3
T/C [8]: 12.89%
TGI [8]: 92.20%
Tumor volume [8]: 132 ± 46 mm^3
Tumor volume (Group 9, 7 mpk IV tiw (Mon,Tue,Wed) x4 cycles, day 16): 131 ± 52 mm^3
Tumor volume (Group 9, 7 mpk IV tiw (Mon,Tue,Wed) x4 cycles, day 18): 160 ± 65 mm^3
Tumor volume (Group 9, 7 mpk IV tiw (Mon,Tue,Wed) x4 cycles, day 21): 248 ± 104 mm^3
Tumor volume (Group 9, 7 mpk IV tiw (Mon,Tue,Wed) x4 cycles, day 23): 252 ± 103 mm^3
Tumor volume (Group 9, 7 mpk IV tiw (Mon,Tue,Wed) x4 cycles, day 25): 255 ± 106 mm^3
Tumor volume (Group 9, 7 mpk IV tiw (Mon,Tue,Wed) x4 cycles, day 28): 447 ± 186 mm^3
Tumor volume (Group 9, 7 mpk IV tiw (Mon,Tue,Wed) x4 cycles, day 30): 695 ± 300 mm^3
